Assay results taken from ChEMBL document CHEMBL5678818, “Discovery of potent SOS1 inhibitors that block RAS activation via disruption of the RAS-SOS1 interaction” (Proc Natl Acad Sci U S A, 2019).

How the values were obtained:
[1] = molecular target: Receptor tyrosine-protein kinase erbB-4 (Homo sapiens) (UniProt Q15303); assay: Inhibition of ERBB4 (unknown origin) assessed as residual activity at 100 nM by KINOMEscan analysis relative to control
[2] = molecular target: T1, Serine/threonine-protein kinase TAO2 (Homo sapiens) (UniProt Q9UL54); assay: Inhibition of TAOK2 (unknown origin) assessed as residual activity at 100 nM by KINOMEscan analysis relative to control
T1 sequence (whole entry): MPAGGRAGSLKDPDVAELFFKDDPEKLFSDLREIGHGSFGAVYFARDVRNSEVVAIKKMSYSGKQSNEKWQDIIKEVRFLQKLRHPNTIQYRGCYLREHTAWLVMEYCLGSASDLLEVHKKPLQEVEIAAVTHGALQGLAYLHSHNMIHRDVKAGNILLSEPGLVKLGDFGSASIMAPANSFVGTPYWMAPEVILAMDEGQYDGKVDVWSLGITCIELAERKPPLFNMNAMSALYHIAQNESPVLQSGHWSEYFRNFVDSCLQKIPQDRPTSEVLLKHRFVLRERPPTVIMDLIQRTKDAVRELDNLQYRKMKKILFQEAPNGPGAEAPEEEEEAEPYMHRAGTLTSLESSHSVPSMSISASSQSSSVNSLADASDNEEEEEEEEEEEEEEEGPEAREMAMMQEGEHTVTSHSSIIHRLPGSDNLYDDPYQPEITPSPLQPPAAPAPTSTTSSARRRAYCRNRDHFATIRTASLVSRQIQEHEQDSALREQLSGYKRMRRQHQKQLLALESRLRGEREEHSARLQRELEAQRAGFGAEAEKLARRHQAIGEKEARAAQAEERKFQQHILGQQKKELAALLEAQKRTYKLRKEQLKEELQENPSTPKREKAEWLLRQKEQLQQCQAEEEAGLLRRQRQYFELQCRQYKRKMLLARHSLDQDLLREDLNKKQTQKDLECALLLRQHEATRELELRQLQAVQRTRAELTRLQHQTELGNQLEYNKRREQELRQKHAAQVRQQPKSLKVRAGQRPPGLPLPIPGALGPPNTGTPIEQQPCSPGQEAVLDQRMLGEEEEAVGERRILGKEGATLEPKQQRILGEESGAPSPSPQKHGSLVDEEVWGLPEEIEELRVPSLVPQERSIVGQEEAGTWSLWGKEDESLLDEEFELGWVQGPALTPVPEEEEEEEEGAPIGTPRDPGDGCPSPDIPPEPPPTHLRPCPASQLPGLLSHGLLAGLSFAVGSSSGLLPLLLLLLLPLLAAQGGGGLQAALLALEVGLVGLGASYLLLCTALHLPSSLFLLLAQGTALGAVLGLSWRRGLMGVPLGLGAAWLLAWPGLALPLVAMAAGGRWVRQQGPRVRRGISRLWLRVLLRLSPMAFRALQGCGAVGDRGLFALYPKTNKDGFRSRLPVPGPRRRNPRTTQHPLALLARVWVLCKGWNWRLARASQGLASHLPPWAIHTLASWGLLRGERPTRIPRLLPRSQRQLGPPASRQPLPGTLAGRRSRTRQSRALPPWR

[3] = molecular target: T2, Dual specificity protein kinase TTK (Homo sapiens) (UniProt P33981); assay: Inhibition of TTK (unknown origin) assessed as residual activity at 100 nM by KINOMEscan analysis relative to control
T2 sequence (whole entry): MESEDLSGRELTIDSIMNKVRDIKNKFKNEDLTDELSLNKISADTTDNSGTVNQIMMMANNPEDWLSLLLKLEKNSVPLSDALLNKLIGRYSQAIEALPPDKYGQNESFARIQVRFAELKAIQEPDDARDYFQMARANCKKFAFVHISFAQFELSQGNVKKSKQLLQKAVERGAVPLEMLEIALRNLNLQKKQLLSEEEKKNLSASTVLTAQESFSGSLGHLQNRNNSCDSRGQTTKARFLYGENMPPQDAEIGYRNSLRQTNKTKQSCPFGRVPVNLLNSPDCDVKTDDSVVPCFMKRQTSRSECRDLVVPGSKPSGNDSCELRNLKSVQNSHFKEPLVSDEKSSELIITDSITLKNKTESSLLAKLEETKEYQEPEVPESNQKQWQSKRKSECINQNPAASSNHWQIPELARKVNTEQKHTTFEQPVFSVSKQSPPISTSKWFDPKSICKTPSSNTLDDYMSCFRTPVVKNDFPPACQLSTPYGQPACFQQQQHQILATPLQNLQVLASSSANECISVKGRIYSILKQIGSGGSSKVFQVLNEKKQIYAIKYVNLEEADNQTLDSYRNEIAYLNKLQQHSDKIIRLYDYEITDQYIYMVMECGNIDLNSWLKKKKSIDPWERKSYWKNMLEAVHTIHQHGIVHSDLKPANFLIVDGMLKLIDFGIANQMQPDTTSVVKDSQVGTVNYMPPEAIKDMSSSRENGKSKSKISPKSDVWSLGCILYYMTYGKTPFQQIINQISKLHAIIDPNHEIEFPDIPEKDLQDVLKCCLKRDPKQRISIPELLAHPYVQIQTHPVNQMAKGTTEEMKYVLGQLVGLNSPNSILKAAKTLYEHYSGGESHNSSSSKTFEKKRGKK

[4] = molecular target: Non-receptor tyrosine-protein kinase TYK2 (Homo sapiens) (UniProt P29597); assay: Inhibition of TYK2 JH2 pseudokinase domain (unknown origin) assessed as residual activity at 100 nM by KINOMEscan analysis relative to control
[5] = tested on: Tyrosine-protein kinase ABL1 (Homo sapiens), P00519 [T315I]; assay: Inhibition of phosphorylated ABL1 T315I mutant (unknown origin) assessed as residual activity at 100 nM by KINOMEscan analysis relative to control
[6] = molecular target: T3, Tyrosine-protein kinase ZAP-70 (Homo sapiens) (UniProt P43403); assay: Inhibition of ZAP70 (unknown origin) assessed as residual activity at 100 nM by KINOMEscan analysis relative to control
T3 sequence (whole entry): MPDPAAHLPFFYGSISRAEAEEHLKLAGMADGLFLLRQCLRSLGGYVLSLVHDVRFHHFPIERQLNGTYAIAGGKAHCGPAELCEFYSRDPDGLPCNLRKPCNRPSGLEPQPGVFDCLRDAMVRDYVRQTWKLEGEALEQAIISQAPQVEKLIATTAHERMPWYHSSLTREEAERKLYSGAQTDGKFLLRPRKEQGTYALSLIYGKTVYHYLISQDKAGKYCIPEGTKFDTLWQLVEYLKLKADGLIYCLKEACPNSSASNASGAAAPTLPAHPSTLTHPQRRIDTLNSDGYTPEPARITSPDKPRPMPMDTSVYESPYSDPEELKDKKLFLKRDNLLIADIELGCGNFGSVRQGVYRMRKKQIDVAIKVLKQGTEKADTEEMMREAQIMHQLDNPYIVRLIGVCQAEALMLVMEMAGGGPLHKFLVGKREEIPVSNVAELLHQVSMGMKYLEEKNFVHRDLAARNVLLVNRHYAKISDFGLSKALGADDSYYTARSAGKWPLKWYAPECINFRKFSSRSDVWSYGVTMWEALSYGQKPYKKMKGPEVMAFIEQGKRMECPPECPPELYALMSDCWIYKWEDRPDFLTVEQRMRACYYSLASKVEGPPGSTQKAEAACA

Sequence of Receptor tyrosine-protein kinase erbB-4 (Homo sapiens) (Q15303 whole entry): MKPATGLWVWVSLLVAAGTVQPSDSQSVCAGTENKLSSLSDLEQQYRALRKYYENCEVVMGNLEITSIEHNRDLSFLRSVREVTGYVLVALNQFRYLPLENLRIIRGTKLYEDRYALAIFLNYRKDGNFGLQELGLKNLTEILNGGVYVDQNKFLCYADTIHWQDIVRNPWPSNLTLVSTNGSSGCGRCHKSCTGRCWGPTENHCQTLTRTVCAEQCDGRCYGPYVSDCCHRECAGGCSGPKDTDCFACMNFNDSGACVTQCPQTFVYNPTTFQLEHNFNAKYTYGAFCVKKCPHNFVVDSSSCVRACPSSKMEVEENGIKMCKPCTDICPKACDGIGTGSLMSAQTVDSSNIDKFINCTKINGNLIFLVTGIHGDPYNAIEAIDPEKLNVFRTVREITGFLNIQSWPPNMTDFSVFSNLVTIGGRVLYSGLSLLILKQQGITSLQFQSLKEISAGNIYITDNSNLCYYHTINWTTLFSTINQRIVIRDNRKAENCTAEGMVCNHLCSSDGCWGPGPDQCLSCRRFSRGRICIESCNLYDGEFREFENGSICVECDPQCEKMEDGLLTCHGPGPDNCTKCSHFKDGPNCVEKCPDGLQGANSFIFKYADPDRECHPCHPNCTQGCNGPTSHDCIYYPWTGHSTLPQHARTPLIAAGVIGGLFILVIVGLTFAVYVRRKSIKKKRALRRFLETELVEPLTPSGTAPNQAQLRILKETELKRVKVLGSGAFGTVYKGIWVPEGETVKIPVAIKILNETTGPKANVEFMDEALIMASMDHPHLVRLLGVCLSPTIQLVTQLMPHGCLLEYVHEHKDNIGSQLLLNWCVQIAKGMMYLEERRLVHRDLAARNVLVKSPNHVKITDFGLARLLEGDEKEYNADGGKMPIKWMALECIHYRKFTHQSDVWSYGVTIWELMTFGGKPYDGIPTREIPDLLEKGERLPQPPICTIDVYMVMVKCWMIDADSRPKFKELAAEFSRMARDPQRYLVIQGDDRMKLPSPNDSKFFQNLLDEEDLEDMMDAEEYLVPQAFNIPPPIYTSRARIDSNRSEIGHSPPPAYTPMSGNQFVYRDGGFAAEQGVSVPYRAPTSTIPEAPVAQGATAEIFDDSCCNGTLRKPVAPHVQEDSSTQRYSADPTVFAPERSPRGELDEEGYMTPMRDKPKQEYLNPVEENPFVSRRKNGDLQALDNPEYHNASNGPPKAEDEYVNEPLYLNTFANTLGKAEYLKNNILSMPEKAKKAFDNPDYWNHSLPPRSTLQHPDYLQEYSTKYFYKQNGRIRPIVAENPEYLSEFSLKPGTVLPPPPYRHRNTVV
Sequence of Non-receptor tyrosine-protein kinase TYK2 (Homo sapiens) (P29597 whole entry, the tested form may be a part): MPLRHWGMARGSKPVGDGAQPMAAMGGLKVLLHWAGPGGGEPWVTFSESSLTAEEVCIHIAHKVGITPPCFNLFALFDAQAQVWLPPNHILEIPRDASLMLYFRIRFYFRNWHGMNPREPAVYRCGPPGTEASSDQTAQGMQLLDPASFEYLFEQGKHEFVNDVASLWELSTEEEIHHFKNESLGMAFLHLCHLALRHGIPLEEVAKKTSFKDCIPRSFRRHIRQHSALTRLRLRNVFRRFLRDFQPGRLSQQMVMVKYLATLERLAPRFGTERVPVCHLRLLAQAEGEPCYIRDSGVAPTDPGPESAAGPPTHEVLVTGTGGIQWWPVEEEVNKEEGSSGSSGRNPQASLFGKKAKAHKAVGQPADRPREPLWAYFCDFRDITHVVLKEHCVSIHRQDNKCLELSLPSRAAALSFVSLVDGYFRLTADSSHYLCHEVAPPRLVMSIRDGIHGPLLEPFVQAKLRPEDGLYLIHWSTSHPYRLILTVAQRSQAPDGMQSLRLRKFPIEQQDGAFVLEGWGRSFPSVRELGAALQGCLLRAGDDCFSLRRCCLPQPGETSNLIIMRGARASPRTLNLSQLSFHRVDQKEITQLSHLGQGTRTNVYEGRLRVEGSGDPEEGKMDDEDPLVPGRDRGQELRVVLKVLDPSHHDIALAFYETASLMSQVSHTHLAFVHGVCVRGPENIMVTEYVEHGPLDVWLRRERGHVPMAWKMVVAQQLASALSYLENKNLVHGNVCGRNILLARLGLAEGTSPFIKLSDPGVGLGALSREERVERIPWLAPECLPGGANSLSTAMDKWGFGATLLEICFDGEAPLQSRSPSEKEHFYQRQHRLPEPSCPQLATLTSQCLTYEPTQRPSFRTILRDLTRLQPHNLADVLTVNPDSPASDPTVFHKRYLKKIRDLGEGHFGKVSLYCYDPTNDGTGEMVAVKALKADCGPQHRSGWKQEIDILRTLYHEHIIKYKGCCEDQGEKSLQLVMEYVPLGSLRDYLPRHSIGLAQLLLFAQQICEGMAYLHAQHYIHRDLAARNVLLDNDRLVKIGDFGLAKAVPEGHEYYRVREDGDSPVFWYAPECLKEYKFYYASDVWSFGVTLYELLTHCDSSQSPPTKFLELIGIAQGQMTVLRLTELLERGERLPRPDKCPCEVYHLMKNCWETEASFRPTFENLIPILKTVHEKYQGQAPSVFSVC

With `COc1cc2ncnc(N[C@H](C)c3cccc4ccccc34)c2cc1OC` the Activity [1] was 100%, the Activity [2] was 94% and the Activity [3] was 95%. It also gave an Activity [4] of 100%, an Activity [5] of 89% and an Activity [6] of 77%.
